Each structure is given as a SMILES string.

Sequence of G-prodeshotein coupled receptor 4 (P46093 whole entry): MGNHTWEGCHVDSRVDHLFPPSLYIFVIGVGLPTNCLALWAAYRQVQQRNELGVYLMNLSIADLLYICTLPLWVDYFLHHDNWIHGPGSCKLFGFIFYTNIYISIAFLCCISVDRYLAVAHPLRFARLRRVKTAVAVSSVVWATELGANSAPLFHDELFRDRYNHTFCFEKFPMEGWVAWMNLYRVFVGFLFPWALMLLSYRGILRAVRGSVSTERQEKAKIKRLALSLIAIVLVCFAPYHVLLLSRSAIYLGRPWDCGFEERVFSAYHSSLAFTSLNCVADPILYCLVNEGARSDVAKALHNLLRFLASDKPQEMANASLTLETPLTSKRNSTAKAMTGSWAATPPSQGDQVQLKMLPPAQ

The assay concerns the target G-prodeshotein coupled receptor 4 (Homo sapiens, UniProt P46093). The assay can be described thus: Radio Ligand Binding Assay: Serial dilutions of compounds (stock in 10 mM DMSO) are prepared by first diluting the compounds in DMSO followed by a 1:50 dilution into assay buffer (10 mM HEPES, pH 8.0, 100 mM NaCl, 5 mM MgCl2, 1 mM CaCl2, 0.5% fatty acid-free BSA, 0.05% Tween-20). […] The desired amount of membranes (20 μg/well) is diluted with assay buffer. […] 100 μL of the membrane-suspension is added and the plate stirred for 60 minutes.
Usually IC50 stands for the midpoint of a concentration-inhibition curve. A low value points to higher potency. Consider `CCc1nn2c(C)cc(C)nc2c1Cc1ccc(OC[C@H]2CC[C@@H](NC(=O)[C@H]3NCC[C@H]3O)CC2)cc1`, for which the half-maximal inhibitory concentration (IC50) stood at 54 nM.

Molecule `CCc1nn2c(C)cc(C)nc2c1Cc1ccc(OCC2CCNCC2)cc1` displayed a half-maximal inhibitory concentration (IC50) of 22 nM.

Molecule `CCc1nn2c(C)cc(C)nc2c1Cc1ccc(OC[C@H]2CC[C@@H](N)CC2)cc1` gave an IC50 of 35 nM.
